From ChEMBL document CHEMBL4819133, “Exploiting the HSP60/10 chaperonin system as a chemotherapeutic target for colorectal cancer” (Bioorg Med Chem, 2021)
Calls of active or inactive are those of the source. The rule behind the calls is not given here.

Assays:
[1] = system: HCT-116; assay: Induction of apoptosis in human HCT-116 cells at 100 uM incubated for 48 hrs by AnnexinV-FITC/PI staining based flow cytometry; format: functional, cell-based
[2] = system: HCT-116; assay: Cytotoxicity against human HCT-116 cells assessed as reduction in cell viability measured after 48 hrs by AlamarBlue assay; format: functional, cell-based; conditions: HCT-116, 48 h
[3] = system: HT-29; assay: Inhibition of clonogenicity in human HT-29 cells assessed as reduction in size of colony incubated for 72 hrs followed by culturing in fresh compound-free medium for 7 days by crystal violet staining based analysis; format: functional, cell-based
[4] = Cytotoxicity against human FHs74Int cells assessed as reduction in cell viability measured after 48 hrs by AlamarBlue assay; format: cell-based
[5] = molecular target: T1, E. coli GroEL/ES (Escherichia coli, UniProt P0A6F5); assay: Inhibition of Escherichia coli GroEL/ES-mediated refolding of the denatured malate dehydrogenase; format: protein-complex assay
[6] = system: HT-29; assay: Inhibition of clonogenicity in human HT-29 cells assessed as reduction in colony formation at 50 uM incubated for 72 hrs followed by culturing in fresh compound-free medium for 7 days by crystal violet staining based analysis; format: functional
[7] = molecular target: HSP60/HSP10 (Homo sapiens, UniProt P10809); assay: Inhibition of human mitochondrial HSP60/10-mediated refolding of the denatured malate dehydrogenase; format: mitochondria, Mitochondria
[8] = system: HT-29; assay: Cytotoxicity against human HT-29 cells assessed as reduction in cell viability measured after 48 hrs by AlamarBlue assay; format: functional, cell-based; conditions: HT-29, 48 h
[9] = system: HT-29; assay: Inhibition of clonogenicity in human HT-29 cells assessed as reduction in number of colony formation incubated for 72 hrs followed by culturing in fresh compound-free medium for 7 days by crystal violet staining based analysis; format: functional, cell-based
[10] = system: HCT-116; assay: Inhibition of clonogenicity in human HCT-116 cells assessed as reduction in size of colony incubated for 72 hrs followed by culturing in fresh compound-free medium for 7 days by crystal violet staining based analysis; format: functional, cell-based
[11] = system: DLD-1; assay: Inhibition of clonogenicity in human DLD-1 cells assessed as reduction in colony formation at 50 uM incubated for 72 hrs followed by culturing in fresh compound-free medium for 7 days by crystal violet staining based analysis; format: functional
[12] = Inhibition of refolded MDH (unknown origin)-mediated oxidation of NADPH in presence of mesoxalic acid treated with compound after refolding of the denatured enzyme; set-up: species or system Homo sapiens
[13] = system: FHC; assay: Cytotoxicity against human FHC cells assessed as reduction in cell viability measured after 48 hrs by AlamarBlue assay; format: cell-based
[14] = molecular target: T1, E. coli GroEL/ES; assay: Inhibition of Escherichia coli GroEL/ES-mediated refolding of the denatured rhodanese; format: protein-complex assay
[15] = system: HCT-116; assay: Inhibition of cell migration in human HCT-116 cells measured at 72 hrs by scratch wound healing assay based phase contrast microscopy; format: functional; conditions: HCT-116, 72 h
[16] = Cytotoxicity against human THLE-3 cells assessed as reduction in cell viability measured after 48 hrs by AlamarBlue assay; format: cell-based; conditions: for CC50 at 48 h: THLE-3 cells; for CC50: thle-3, 48 h
[17] = system: HCT-116; assay: Induction of cell death in human HCT-116 cells assessed as loss of cell monolayer integrity and cytoplasm extrusion at 100 uM measured for 72 hrs by phase contrast microscopy; format: functional, cell-based
[18] = (§1) Cytotoxicity against human HEK293 cells assessed as reduction in cell viability measured after 48 hrs by AlamarBlue assay; format: cell-based; conditions: HEK293 cells
[19] = system: DLD-1; assay: Inhibition of clonogenicity in human DLD-1 cells assessed as reduction in size of colony incubated for 72 hrs followed by culturing in fresh compound-free medium for 7 days by crystal violet staining based analysis; format: functional, cell-based
[20] = system: HCT-116; assay: Inhibition of clonogenicity in human HCT-116 cells assessed as reduction in number of colony formation incubated for 72 hrs followed by culturing in fresh compound-free medium for 7 days by crystal violet staining based analysis; format: functional, cell-based
[21] = system: DLD-1; assay: Cytotoxicity against human DLD-1 cells assessed as reduction in cell viability measured after 48 hrs by AlamarBlue assay; format: functional, cell-based; conditions: DLD-1, 48 h
[22] = molecular target: T2, Thiosulfate sulfurtransferase (Homo sapiens, UniProt Q16762); assay: Inhibition of refolded Rhodanese (unknown origin)-mediated conversion of cyanide to thiocyanate treated with compound after refolding of the denatured enzyme
T2 sequence (Q16762 whole entry): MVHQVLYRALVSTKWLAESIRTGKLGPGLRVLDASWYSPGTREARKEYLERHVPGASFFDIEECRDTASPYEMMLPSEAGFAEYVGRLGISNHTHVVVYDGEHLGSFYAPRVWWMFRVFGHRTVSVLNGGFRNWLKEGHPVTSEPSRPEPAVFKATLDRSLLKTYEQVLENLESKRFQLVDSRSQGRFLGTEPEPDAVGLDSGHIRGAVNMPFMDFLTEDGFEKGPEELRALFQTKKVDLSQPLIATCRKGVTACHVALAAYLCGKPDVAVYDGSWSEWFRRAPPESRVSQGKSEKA

[23] = system: HCT-116; assay: Inhibition of cell migration in human HCT-116 cells at 10 uM measured at >=20 hrs by scratch wound healing assay based phase contrast microscopy; format: functional; conditions: time hrs >=20
[24] = system: DLD-1; assay: Inhibition of clonogenicity in human DLD-1 cells assessed as reduction in number of colony formation incubated for 72 hrs followed by culturing in fresh compound-free medium for 7 days by crystal violet staining based analysis; format: functional, cell-based
[25] = system: HCT-116; assay: Inhibition of clonogenicity in human HCT-116 cells assessed as reduction in colony formation at 50 uM incubated for 72 hrs followed by culturing in fresh compound-free medium for 7 days by crystal violet staining based analysis; format: functional
[26] = system: HCT-116; assay: Cytostatic activity in human HCT-116 cells assessed as viable cells at 100 uM incubated for 48 hrs by AnnexinV/PI staining based flow cytometry; format: functional, cell-based
[27] = system: HCT-116; assay: Induction of apoptosis in human HCT-116 cells assessed as compact cell monolayer at 100 uM measured for 72 hrs by phase contrast microscopy; format: functional, cell-based
[28] = system: HEK293; assay: as §1; format: cell-based; conditions: hek293, 48 h
[29] = system: HCT-116; assay: Inhibition of cell migration in human HCT-116 cells at 0.14 to 100 uM measured for 72 hrs by scratch wound healing assay based phase contrast microscopy; format: functional; conditions: dose 0.14-100 µM

T1 sequence (P0A6F5 whole entry, looked up): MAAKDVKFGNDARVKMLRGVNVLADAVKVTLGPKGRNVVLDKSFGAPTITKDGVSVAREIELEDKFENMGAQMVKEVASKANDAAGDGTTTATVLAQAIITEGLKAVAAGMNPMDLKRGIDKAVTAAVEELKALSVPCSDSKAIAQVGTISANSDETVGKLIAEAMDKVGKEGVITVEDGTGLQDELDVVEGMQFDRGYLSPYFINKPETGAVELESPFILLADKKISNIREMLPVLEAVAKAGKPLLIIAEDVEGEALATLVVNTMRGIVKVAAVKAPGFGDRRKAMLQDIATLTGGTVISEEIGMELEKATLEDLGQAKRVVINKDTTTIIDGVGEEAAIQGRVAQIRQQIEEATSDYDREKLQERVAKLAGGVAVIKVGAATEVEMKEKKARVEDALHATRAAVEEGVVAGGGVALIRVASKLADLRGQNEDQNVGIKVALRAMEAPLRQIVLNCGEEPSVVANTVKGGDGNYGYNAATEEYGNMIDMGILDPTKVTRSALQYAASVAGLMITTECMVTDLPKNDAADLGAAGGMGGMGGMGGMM
Sequence of HSP60/HSP10 (P10809 whole entry): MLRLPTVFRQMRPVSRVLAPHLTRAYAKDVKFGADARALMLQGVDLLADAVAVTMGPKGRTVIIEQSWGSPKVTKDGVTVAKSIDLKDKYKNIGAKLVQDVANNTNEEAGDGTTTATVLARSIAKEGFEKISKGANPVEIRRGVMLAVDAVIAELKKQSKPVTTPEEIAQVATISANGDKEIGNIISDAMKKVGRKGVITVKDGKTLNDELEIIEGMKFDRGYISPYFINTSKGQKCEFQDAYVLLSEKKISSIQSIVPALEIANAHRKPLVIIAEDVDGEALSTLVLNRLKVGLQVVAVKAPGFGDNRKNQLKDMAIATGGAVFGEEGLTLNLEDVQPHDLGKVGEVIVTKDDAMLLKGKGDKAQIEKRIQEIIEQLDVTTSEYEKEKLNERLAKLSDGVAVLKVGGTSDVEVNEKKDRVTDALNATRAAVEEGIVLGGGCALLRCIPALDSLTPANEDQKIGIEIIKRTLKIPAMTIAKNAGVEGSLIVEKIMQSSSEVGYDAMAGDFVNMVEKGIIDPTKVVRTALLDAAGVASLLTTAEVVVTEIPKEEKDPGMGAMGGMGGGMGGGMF
Sequence of HSP60/HSP10 (P61604 whole entry, further chain): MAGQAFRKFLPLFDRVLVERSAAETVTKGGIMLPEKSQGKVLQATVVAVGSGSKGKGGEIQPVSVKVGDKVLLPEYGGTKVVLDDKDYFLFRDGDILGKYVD

Structure (SMILES): Cc1ccc(S(=O)(=O)Nc2ccc(-c3nc4cc(NS(=O)(=O)c5ccc(C)cc5)ccc4o3)cc2)cc1
- Activity [1]: Active
- EC50 [2]: 5.9 µM
- EC50 [3]: 10 µM
- inhibition [3]: Dose-Dependent Effect
- CC50 [4]: 74 µM
- IC50 [5]: 27 µM
- inhibition at 50 µM [6]: 100%
- IC50 [7]: > 100 µM
- EC50 [8]: 11 µM
- EC50 [9]: 13 µM
- inhibition [9]: Dose-Dependent Effect
- EC50 [10]: 15 µM
- inhibition [10]: Dose-Dependent Effect
- inhibition at 50 µM [11]: 100%
- IC50 [12]: > 62.5 µM
- CC50 [13]: 51 µM
- IC50 [14]: 30 µM
- EC50 [15]: 9 µM
- CC50 at 48 h [16]: 15 µM
- Activity [17]: Active
- CC50 at 48 h [18]: 32 µM
- EC50 [19]: 12 µM
- inhibition [19]: Dose-Dependent Effect
- EC50 [20]: 14 µM
- inhibition [20]: Dose-Dependent Effect
- EC50 [21]: 13 µM
- IC50 [22]: > 100 µM
- inhibition [23]: Active
- EC50 [24]: 16 µM
- inhibition [24]: Dose-Dependent Effect
- inhibition at 50 µM [25]: 100%

Structure (SMILES): COc1ccc(S(=O)(=O)Nc2ccc3oc(-c4ccc(NC(=O)c5ccc(Cl)s5)cc4)nc3c2)cc1
- EC50 [2]: 5.4 µM
- EC50 [3]: 0.71 µM
- CC50 [4]: > 100 µM
- IC50 [5]: 18 µM
- inhibition [6]: Active
- IC50 [7]: 61 µM
- EC50 [8]: 1.9 µM
- EC50 [9]: 2.3 µM
- EC50 [10]: 1.1 µM
- inhibition [11]: Active
- IC50 [12]: > 62.5 µM
- CC50 [13]: > 100 µM
- IC50 [14]: 15 µM
- Activity [26]: Active
- Activity [27]: inactive
- EC50 [15]: 5.7 µM
- CC50 [16]: 57 µM
- CC50 [28]: 15 µM
- EC50 [19]: 11 µM
- EC50 [20]: 2.7 µM
- EC50 [21]: 4.6 µM
- IC50 [22]: > 100 µM
- EC50 [24]: > 50 µM
- inhibition [29]: Active
- inhibition [25]: Active

Structure (SMILES): COc1c(Br)cccc1C(=O)Nc1ccc(Sc2nc3ccccc3s2)c(Cl)c1
- Activity [1]: Active
- EC50 [2]: 8.5 µM
- EC50 [3]: 13 µM
- inhibition [3]: Dose-Dependent Effect
- CC50 [4]: > 100 µM
- IC50 [5]: 37 µM
- inhibition at 50 µM [6]: 100%
- EC50 [8]: 11 µM
- EC50 [9]: 27 µM
- inhibition [9]: Dose-Dependent Effect
- EC50 [10]: 12 µM
- inhibition [10]: Dose-Dependent Effect
- inhibition at 50 µM [11]: 100%
- IC50 [12]: > 62.5 µM
- CC50 [13]: > 100 µM
- IC50 [14]: 16 µM
- EC50 [15]: 5.5 µM
- CC50 at 48 h [16]: 14 µM
- Activity [17]: Active
- CC50 at 48 h [18]: 40 µM
- EC50 [19]: 10 µM
- inhibition [19]: Dose-Dependent Effect
- EC50 [20]: 11 µM
- inhibition [20]: Dose-Dependent Effect
- EC50 [21]: 10 µM
- inhibition [23]: Active
- EC50 [24]: 11 µM
- inhibition [24]: Dose-Dependent Effect
- inhibition at 50 µM [25]: 100%

Structure (SMILES): COc1ccc(S(=O)(=O)Nc2ccc3oc(-c4ccc(NC(=O)c5cccc(C)c5[N+](=O)[O-])cc4)nc3c2)cc1
- EC50 [2]: 4.4 µM
- EC50 [3]: 2 µM
- CC50 [4]: > 100 µM
- IC50 [5]: 33 µM
- inhibition [6]: Active
- IC50 [7]: 72 µM
- EC50 [9]: 26 µM
- EC50 [10]: 2.6 µM
- inhibition [11]: Active
- IC50 [12]: > 62.5 µM
- CC50 [13]: > 100 µM
- IC50 [14]: 28 µM
- Activity [26]: Active
- Activity [27]: inactive
- EC50 [15]: 2.3 µM
- CC50 [16]: 22 µM
- CC50 [28]: 12 µM
- EC50 [19]: 1.6 µM
- EC50 [20]: 19 µM
- EC50 [21]: 1.5 µM
- IC50 [22]: > 100 µM
- EC50 [24]: > 50 µM
- inhibition [29]: Active
- inhibition [25]: Active

Structure (SMILES): O=C(Nc1ccc(Sc2nc3ccccc3s2)c(Cl)c1)c1cccc(Br)c1O
- Activity [1]: Active
- EC50 [2]: 12 µM
- EC50 [3]: 12 µM
- inhibition [3]: Dose-Dependent Effect
- CC50 [4]: > 100 µM
- IC50 [5]: 10 µM
- inhibition at 50 µM [6]: 100%
- IC50 [7]: 7.7 µM
- EC50 [8]: 20 µM
- EC50 [9]: 32 µM
- inhibition [9]: Dose-Dependent Effect
- EC50 [10]: 9.1 µM
- inhibition [10]: Dose-Dependent Effect
- inhibition at 50 µM [11]: 100%
- IC50 [12]: > 62.5 µM
- CC50 [13]: > 100 µM
- IC50 [14]: 5.9 µM
- EC50 [15]: 2 µM
- CC50 at 48 h [16]: 18 µM
- Activity [17]: Active
- CC50 at 48 h [18]: 68 µM
- EC50 [19]: 11 µM
- inhibition [19]: Dose-Dependent Effect
- EC50 [20]: 17 µM
- inhibition [20]: Dose-Dependent Effect
- EC50 [21]: 22 µM
- inhibition [23]: Active
- EC50 [24]: 21 µM
- inhibition [24]: Dose-Dependent Effect
- inhibition at 50 µM [25]: 100%
